Results reported in patent US10570122B2, “Compounds with anti-tumoral activity” (AB Science, priority 2015, dated 2020).

How the values were obtained:
BXPC3 = test: CellTiter-Blue cell-based survival/proliferation assay, BXPC3; details: Homo sapiens, BXPC-3; BXPC3 pancreas tumor cell line, 48 h
Procedure, shortened: (§1)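 Compounds, diluted tenfold serially over 0–10 μM, are applied to 1·10^4 seeded cells per well for 48 h at 37 °C. Resorufin formed during a further 4 h with CellTiter-Blue is detected by fluorescence emission at 590 nm.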

OPM2 = test: CellTiter-Blue cell-based survival/proliferation assay, OPM2; details: Homo sapiens, OPM-2, Myeloma cell line OPM2, 48 h, read-out: Anti-tumoral activity (measured IC50) OPM2
Procedure, shortened: as §1

REC1 = test: CellTiter-Blue cell-based survival/proliferation assay, REC1; details: Homo sapiens, Lymphoma cell line REC1, 48 h, read-out: Anti-tumoral activity (measured IC50) REC1
Procedure, shortened: as §1

A498 = test: CellTiter-Blue cell-based survival/proliferation assay, A498; details: Homo sapiens; A498 kidney tumor cell line, 48 h
Procedure, shortened: as §1

A4513 = test: CellTiter-Blue cell-based survival/proliferation assay, A4513; details: Homo sapiens; A4513 Ewing cell line, 48 h
Procedure, shortened: as §1

KARPAS299 = test: CellTiter-Blue cell-based survival/proliferation assay, KARPAS299; details: Homo sapiens, KARPAS-299, Lymphoma cell line KARPAS299, 48 h, read-out: Anti-tumoral activity (measured IC50) KARPAS299
Procedure, shortened: as §1

MESSA = test: CellTiter-Blue cell-based survival/proliferation assay, MESSA; details: Homo sapiens, MES-SA; MESSA ovary tumor cell line, 48 h
Procedure, shortened: as §1

PLCPRF5 = test: CellTiter-Blue cell-based survival/proliferation assay, PLCPRF5; details: Homo sapiens, PLC-PRF-5; PLC_PRF5 liver tumor cell line, 48 h
Procedure, shortened: as §1

SW579 = test: CellTiter-Blue cell-based survival/proliferation assay, SW579; details: Homo sapiens; SW579 head & neck tumor cell line, 48 h
Procedure, shortened: as §1

HEP2 = test: CellTiter-Blue cell-based survival/proliferation assay, HEP2; details: Homo sapiens, HEp-2; HEP2 head & neck tumor cell line, 48 h
Procedure, shortened: as §1

U2OS = test: CellTiter-Blue cell-based survival/proliferation assay, U2OS; details: Homo sapiens; U2OS osteosarcoma cell line, 48 h
Procedure, shortened: as §1

HCT116 = test: CellTiter-Blue cell-based survival/proliferation assay, HCT116; details: Homo sapiens, HCT-116; HCT116 colorectal tumor cell line, 48 h
Procedure, shortened: as §1

HUT78 = test: CellTiter-Blue cell-based survival/proliferation assay, HUT78; details: Homo sapiens, Lymphoma cell line HUT78, 48 h, read-out: Anti-tumoral activity (measured IC50) HUT78
Procedure, shortened: as §1

HL60 = test: CellTiter-Blue cell-based survival/proliferation assay, HL60; details: Homo sapiens, HL-60, Leukemia cell line HL60, 48 h, read-out: Anti-tumoral activity (measured IC50) HL60
Procedure, shortened: as §1

H1299 = test: CellTiter-Blue cell-based survival/proliferation assay, H1299; details: Homo sapiens, NCI-H1299; H1299 lung tumor cell line, 48 h
Procedure, shortened: as §1

PANC1 = test: CellTiter-Blue cell-based survival/proliferation assay, PANC1; details: Homo sapiens, PANC-1; PANC_1 pancreas tumor cell line, 48 h
Procedure, shortened: as §1

DLD1 = test: CellTiter-Blue cell-based survival/proliferation assay, DLD1; details: Homo sapiens, DLD-1; DLD_1 colorectal tumor cell line, 48 h
Procedure, shortened: as §1

PC3 = test: CellTiter-Blue cell-based survival/proliferation assay, PC3; details: Homo sapiens, PC-3; PC3 prostate tumor cell line, 48 h
Procedure, shortened: as §1

DU145 = test: CellTiter-Blue cell-based survival/proliferation assay, DU145; details: Homo sapiens, DU-145; DU145 prostate tumor cell line, 48 h
Procedure, shortened: as §1

A375 = test: CellTiter-Blue cell-based survival/proliferation assay, A375; details: Homo sapiens, A-375; A375 melanoma cell line, 48 h
Procedure, shortened: as §1

TOV112D = test: CellTiter-Blue cell-based survival/proliferation assay, TOV112D; details: Homo sapiens; TOV112D ovary tumor cell line, 48 h
Procedure, shortened: as §1

HEPG2 = test: CellTiter-Blue cell-based survival/proliferation assay, HEPG2; details: Homo sapiens; HEPG2 liver tumor cell line, 48 h
Procedure, shortened: as §1

MELWO = test: CellTiter-Blue cell-based survival/proliferation assay, MELWO; details: Homo sapiens; MEL_WO melanoma cell line, 48 h
Procedure, shortened: as §1

HGC27 = test: CellTiter-Blue cell-based survival/proliferation assay, HGC27; details: Homo sapiens, HGC-27; HGC27 stomach tumor cell line, 48 h
Procedure, shortened: as §1

AGS = test: CellTiter-Blue cell-based survival/proliferation assay, AGS; details: Homo sapiens; AGS stomach tumor cell line, 48 h
Procedure, shortened: as §1

CLS354 = test: CellTiter-Blue cell-based survival/proliferation assay, CLS354; details: Homo sapiens, CLS-354; CLS354_4 head & neck tumor cell line, 48 h
Procedure, shortened: as §1

A549 = test: CellTiter-Blue cell-based survival/proliferation assay, A549; details: Homo sapiens; A549 lung tumor cell line, 48 h
Procedure, shortened: as §1

ACHN = test: CellTiter-Blue cell-based survival/proliferation assay, ACHN; details: Homo sapiens; ACHN kidney tumor cell line, 48 h
Procedure, shortened: as §1

U118 = test: CellTiter-Blue cell-based survival/proliferation assay, U118; details: Homo sapiens; U118 glioblastoma cell line, 48 h
Procedure, shortened: as §1

U87MG = test: CellTiter-Blue cell-based survival/proliferation assay, U87MG; details: Homo sapiens, U-87 MG; U87_MG glioblastoma cell line, 48 h
Procedure, shortened: as §1

CALU6 = test: CellTiter-Blue cell-based survival/proliferation assay, CALU6; details: Homo sapiens, Calu-6; CALU6 lung tumor cell line, 48 h
Procedure, shortened: as §1

MDAMB231 = test: CellTiter-Blue cell-based survival/proliferation assay, MDAMB231; details: Homo sapiens, MDA-MB-231; MDAMB231 breast tumor cell line, 48 h
Procedure, shortened: as §1

BT20 = test: CellTiter-Blue cell-based survival/proliferation assay, BT20; details: Homo sapiens, BT-20; BT20 breast tumor cell line, 48 h
Procedure, shortened: as §1

Measured: IC50

Cc1ccc(CO)cc1Nc1nc(-c2ccc(-n3cccn3)cc2)cs1 [Example 016, {4-Methyl-3-[4-(4-pyrazol-1-yl-phenyl)-thiazol-2-ylamino]-phenyl}-methanol]
> 1 µM: all assays above

CCOCc1ccc(C)c(Nc2nc(-c3ccc(-n4ccnc4)cc3)cs2)c1 [Example 017, (5-Ethoxymethyl-2-methyl-phenyl)-[4-(4-imidazol-1-yl-phenyl)-thiazol-2-yl]-amine]
> 1 µM: all assays above

CCOCc1cc(C)cc(Nc2nc(-c3ccc(N4CCNC4=O)cc3)cs2)c1 [Example 018, 1-{4-[2-(3-Ethoxymethyl-(5-methyl-phenylamino))-thiazol-4-yl]-phenyl}-imidazolidin-2-one]
0.1 to 0.5 µM: U2OS | HCT116
≤ 0.1 µM: OPM2 | REC1 | A4513 | KARPAS299 | HEP2 | HUT78 | HL60 | A375 | TOV112D | CLS354 | A549
0.5 to 1 µM: A498 | HGC27 | ACHN
> 1 µM: all other assays above
